Results as given in publication PMC10673995, “Discovery of a novel cardiac-specific myosin modulator using artificial intelligence-based virtual screening” (Nature Communications, 2023).
Values joined by “and” are separate entries in the source; they are usually repeats but may differ in a detail not shown here. Identical values can stand only once.

Tested on: isolated Langendorff-perfused rat hearts
Test: Langendorff-perfused rat hearts, haemodynamic parameters
Parameters: key to LVSP, individual hearts / LVEDP, individual hearts: pressure in mmHg; Max (Figure 5c): unit not given here
Conditions: for Max (Figure 5c): one column per heart; for LVSP representative trace, ON: during perfusion with compound
Protocol: Next, we tested for the functional effects of F10 in isolated Langendorff-perfused rat hearts. Hearts were initially stabilized in modified Krebs-Henseleit (KH) solution for about 25–30 min and subsequently perfused with KH solution containing 20 μmol L^−1 F10 for 5 mins to reach a new steady state.
Rat hearts were Langendorff-perfused as described previously. Briefly, Wistar rats (Rattus norvegicus, male, 200–250 g, 7 weeks old) were anesthetized by injection of 0.9 mL sodium pentobarbitone 20% (w/v). […] The aorta was cannulated and secured with sutures (Mersilk 3‐0; Ethicon, Somerville, NJ, USA). Hearts were perfused at a constant perfusion pressure of 70 ± 2 mmHg using a peristaltic pump (Gilson Minipuls 4, Middleton, WI, USA) and a feedback control system (STH Pump Controller; AD Instruments, Oxford, UK). […] A fluid‐filled balloon, attached to a pressure transducer, was inserted into the left ventricle and inflated to give an end‐diastolic pressure between 3 and 8 mmHg. Left ventricular pressure (LVP), perfusion pressure, coronary flow and arterial and venous oxygen tensions were recorded using a PowerLab recorder and LabChart 8.0 software (ADInstruments). Functional parameters were averaged for ∼80 cardiac cycles at 5 min intervals.

[1] = 20 μmol L^−1 F10 or 1 μmol L^−1 Mavacamten
[2] = Time 11 min, during perfusion with 20 μmol L^−1 F10 or 1 μmol L^-1 Mavacamten
[3] = Time 12 min, during perfusion with 20 μmol L^−1 F10 or 1 μmol L^-1 Mavacamten
[4] = Time 13 min, during perfusion with 20 μmol L^−1 F10 or 1 μmol L^-1 Mavacamten
[5] = Time 14 min, during perfusion with 20 μmol L^−1 F10 or 1 μmol L^-1 Mavacamten
[6] = Time 15 min, during perfusion with 20 μmol L^−1 F10 or 1 μmol L^-1 Mavacamten

## CCc1cc2c(=O)n(NC(=S)NC(C)C)cnc2s1 [F10]
20 μmol L^−1 F10
  decrease of LVSP: about 65%
  time to LVSP decrease: 2 to 3 min
20 μmol L^−1 F10, baseline 1.9 ± 0.2
  LVEDP: 22.0 ± 1.1 mmHg
20 μmol L^−1 F10, baseline 15.6 ± 1.7
  Coronary flow: 16.7 ± 2.3 mL/min
20 μmol L^−1 F10, baseline 168.0 ± 8.5
  LVSP (left ventricular systolic pressure): 58.3 ± 2.2 mmHg and ~60 mmHg
20 μmol L^−1 F10, baseline 303 ± 8
  Heart rate: 300 ± 4 bpm
20 μmol L^−1 F10, baseline 3978.8 ± 108.0
  dP dt-1max: 1329.0 ± 153.8 mmHg s-1
20 μmol L^−1 F10, baseline -3352.4 ± 134.4
  dP dt-1min: -1300.0 ± 104.2 mmHg s-1
[1]
  effect on coronary perfusion / coronary flow: without, however, affecting
  effect on heart rate: without, however, affecting
  effect on left ventricular end-diastolic pressure (LVEDP): slightly increased
Time 0 min
  Max (Figure 5c): 4538.86 and 3737.57 and 4104.74 and 3514.73
Time 1 min
  Max (Figure 5c): 4533.2 and 3831.26 and 4064.23 and 3491.94
Time 2 min
  Max (Figure 5c): 4496.16 and 3879.38 and 4046.5 and 3811.01
Time 3 min
  Max (Figure 5c): 4752.62 and 3481.82 and 4079.42 and 3811
Time 4 min
  Max (Figure 5c): 4748.26 and 3745.17 and 3942.68 and 3866.71
Time 5 min
  Max (Figure 5c): 4784.79 and 3724.91 and 3914.83 and 3735.04
Time 6 min
  Max (Figure 5c): 4906.21 and 3922.42 and 4049.03 and 3689.46
Time 7 min
  Max (Figure 5c): 4229.13 and 4155.39 and 4130.07 and 3504.61
Time 8 min
  Max (Figure 5c): 3838.64 and 3904.7 and 4175.65 and 3570.44
Time 9 min
  Max (Figure 5c): 4069.64 and 3864.18 and 4233.89 and 3747.7
Time 10 min
  Max (Figure 5c): 4016.14 and 3757.83 and 4254.14 and 3608.43
[2]
  LVEDP, individual hearts: 15.6 and 9.2 (2×) and 12.7
  LVSP, individual hearts: 111 and 115 and 127 and 112
Time 11 min
  Max (Figure 5c): 2272.52 and 2689.23 and 2643.65 and 2375.23
[3]
  LVEDP, individual hearts: 29.6 and 15 and 19.6 and 15.9
  LVSP, individual hearts: 61 and 72 and 67 and 69
Time 12 min
  Max (Figure 5c): 1178.7 and 1696.59 and 1306.63 and 1372.47
[4]
  LVEDP, individual hearts: 33.1 and 16.4 and 22.8 and 17.5
  LVSP, individual hearts: 53 and 61 and 54 and 64
Time 13 min
  Max (Figure 5c): 944.61 and 1258.52 and 1063.54 and 1212.94
[5]
  LVEDP, individual hearts: 33.5 and 16.7 and 22.2 and 17.6
  LVSP, individual hearts: 53 and 62 and 55 and 63
[6]
  LVEDP, individual hearts: 24.3 and 20.65 and 23.5 and 19.6
  LVSP, individual hearts: 54 and 60 and 59 and 62
Time 15 min
  Max (Figure 5c): 1778.6 and 1228.13 and 1081.26
Time 16 min, after washout
  LVEDP, individual hearts: 10.1 and 9 and 13.9 and 11.2
  LVSP, individual hearts: 56 and 118 and 105 and 99
Time 16 min
  Max (Figure 5c): 3660.62 and 2787.98 and 2279.01 and 1886.51
Time 17 min, after washout
  LVEDP, individual hearts: 4.9 and 3.7 and 8.8 and 5.7
  LVSP, individual hearts: 80 and 162 and 174 and 148
Time 17 min
  Max (Figure 5c): 4729.41 and 3935.08 and 3990.79 and 3096.92
Time 18 min, after washout
  LVEDP, individual hearts: 3.9 and 2 and 7.3 (2×)
  LVSP, individual hearts: 157 and 184 and 161 and 128
Time 18 min
  Max (Figure 5c): 4833.67 and 4428.87 and 3509.67 and 2539.83
Time 19 min, after washout
  LVEDP, individual hearts: 4.5 and 0 and 5.9 and 6.4
  LVSP, individual hearts: 189 and 183 and 170 and 127
Time 19 min
  Max (Figure 5c): 4740.03 and 4469.38 and 3319.75 and 2476.52
Time 20 min, after washout
  LVEDP, individual hearts: 4.8 and 1.5 and 7.4 and 6.4
  LVSP, individual hearts: 198 and 188 and 151 and 124
Time 20 min
  Max (Figure 5c): 4601.11 and 4596 and 3177.95 and 2499.31
Time 21 min, after washout
  LVEDP, individual hearts: 3.4 and 1.5 and 7.5 and 6
  LVSP, individual hearts: 199 and 191 and 151 and 124
Time 21 min
  Max (Figure 5c): 4625.81 and 4497.24 and 3228.59 and 2473.99
Time 22 min, after washout
  LVEDP, individual hearts: 0.7 and 0.5 and 7.5 and 6.6
  LVSP, individual hearts: 200 and 181 and 145 and 127
Time 22 min
  Max (Figure 5c): 4517.25 and 4112.34 and 3099.45 and 2489.18
Time 23 min, after washout
  LVEDP, individual hearts: 3.5 and 0.4 and 5.8 and 6.4
  LVSP, individual hearts: 202 and 174 and 144 and 129
Time 23 min
  Max (Figure 5c): 4435.96 and 3988.26 and 3074.13 and 2524.63
Time 24 min, after washout
  LVEDP, individual hearts: 3.4 and 1.5 and 6.4 and 5.5
  LVSP, individual hearts: 196 and 173 and 146 and 133
Time 24 min
  Max (Figure 5c): 4141.16 and 3968 and 3132.37 and 2582.87
Time 25 min, after washout
  LVEDP, individual hearts: 2.4 and 0.2 and 5.3 and 4.7
  LVSP, individual hearts: 195 and 173 and 151 and 139
Time 25 min
  Max (Figure 5c): 4228.11 and 3945.21 and 3241.25 and 2668.97
After washout, t 0 s
  LVSP representative trace, OFF: 26.9301 mmHg
After washout, t 10 s
  LVSP representative trace, OFF: 27.9144 mmHg
After washout, t 20 s
  LVSP representative trace, OFF: 30.1929 mmHg
After washout, t 30 s
  LVSP representative trace, OFF: 33.9204 mmHg
After washout, t 40 s
  LVSP representative trace, OFF: 39.0616 mmHg
After washout, t 50 s
  LVSP representative trace, OFF: 45.8972 mmHg
After washout, t 60 s
  LVSP representative trace, OFF: 54.0831 mmHg
After washout, t 70 s
  LVSP representative trace, OFF: 63.6019 mmHg
After washout, t 80 s
  LVSP representative trace, OFF: 75.1964 mmHg
After washout, t 90 s
  LVSP representative trace, OFF: 88.9731 mmHg
After washout, t 100 s
  LVSP representative trace, OFF: 99.8102 mmHg
After washout, t 110 s
  LVSP representative trace, OFF: 110.826 mmHg
After washout, t 120 s
  LVSP representative trace, OFF: 122.733 mmHg
After washout, t 130 s
  LVSP representative trace, OFF: 132.379 mmHg
After washout, t 140 s
  LVSP representative trace, OFF: 138.465 mmHg
After washout, t 150 s
  LVSP representative trace, OFF: 148.942 mmHg
After washout, t 160 s
  LVSP representative trace, OFF: 154.992 mmHg
After washout, t 170 s
  LVSP representative trace, OFF: 158.488 mmHg
After washout, t 180 s
  LVSP representative trace, OFF: 163.133 mmHg
After washout, t 190 s
  LVSP representative trace, OFF: 167.458 mmHg
After washout, t 200 s
  LVSP representative trace, OFF: 171.598 mmHg
After washout, t 210 s
  LVSP representative trace, OFF: 175.866 mmHg
After washout, t 220 s
  LVSP representative trace, OFF: 181.264 mmHg
After washout, t 230 s
  LVSP representative trace, OFF: 184.759 mmHg
After washout, t 240 s
  LVSP representative trace, OFF: 185.799 mmHg
T 0 s
  LVSP representative trace, ON: 184.006 mmHg
T 10 s
  LVSP representative trace, ON: 181.455 mmHg
T 20 s
  LVSP representative trace, ON: 172.654 mmHg
T 30 s
  LVSP representative trace, ON: 155.565 mmHg
T 40 s
  LVSP representative trace, ON: 123.466 mmHg
T 50 s
  LVSP representative trace, ON: 94.0285 mmHg
T 60 s
  LVSP representative trace, ON: 73.0453 mmHg
T 70 s
  LVSP representative trace, ON: 48.8284 mmHg
T 80 s
  LVSP representative trace, ON: 40.271 mmHg
T 90 s
  LVSP representative trace, ON: 34.4969 mmHg
T 100 s
  LVSP representative trace, ON: 31.9133 mmHg
T 110 s
  LVSP representative trace, ON: 30.398 mmHg
T 120 s
  LVSP representative trace, ON: 28.7612 mmHg
T 130 s
  LVSP representative trace, ON: 28.2624 mmHg
T 140 s
  LVSP representative trace, ON: 27.1705 mmHg
Individual hearts
  Coronary flow: 18.7 mL/min and 18.0 mL/min and 20.0 mL/min and 10.0 mL/min
  Heart rate: 295.0 bpm and 311.0 bpm and 292.0 bpm and 302.0 bpm
  LVEDP: 30.3 mmHg and 17.9 mmHg and 22.8 mmHg and 18.2 mmHg
  LVSP: 53.3 mmHg and 61.0 mmHg and 56.0 mmHg and 63.0 mmHg
  dP dt-1max: 1778.6 mmHg s-1 and 1228.1 mmHg s-1 (2×) and 1081.3 mmHg s-1
  dP dt-1min: -1606.8 mmHg s-1 and -1233.2 mmHg s-1 and -1142.0 mmHg s-1 and -1218.0 mmHg s-1
Perfusion with KH solution in the absence of F10
  reversibility of the effect on washout: completely reversible
